Laboratory results from paper PMC5570892, “Indole-based perenosins as highly potent HCl transporters and potential anti-cancer agents” (Scientific Reports, 2017).
Several values for one entry are separate records, joined by “and”; a condition that tells them apart may be missing. Equal values may be shown once. Entries after “also recorded” stand apart in the source; their conditions may differ.

Assay: Cl^−/NO3^− antiport assay by chloride ISE
Type: biochemical
Settings: for chloride efflux at pH 4.5: citrate buffer, within 5 minutes; for chloride transport at pH 6.5: phosphate buffer, compared to pH 7.2; for chloride transport at pH 7.2 (Hill analysis feasibility): Cl^−/NO3^− ISE assay, dose response; for EC50 Cl^−/NO3^− at pH 7.2 (by ISE): EC50 at 270 s, carrier:lipid molar percent, POPC vesicles
Description: The chloride transport properties of the new perenosins 2–8 were compared to 1d using the chloride/nitrate exchange assay monitored by a chloride ion selective electrode (ISE). Typically, unilamellar vesicles were prepared from POPC, containing an intravesicular NaCl solution (489 mM with 5 mM phosphate buffer at pH 7.2) suspended in a NaNO3 solution (489 mM with 5 mM phosphate buffer at pH 7.2). All perenosins were added as a DMSO solution and the rate of chloride efflux was monitored by the chloride ISE. At the end of the experiment (300 s), detergent was added to lyse the vesicles and obtain the 100% chloride efflux reading. Dose response studies of 1d and 2–8 were performed to allow Hill analysis, giving the EC50 values and Hill coefficients as shown in Table 2.
The external pH of cancer cells (pH 6.7[53]) is slightly acidic compared to healthy cells (pH 7.2–7.5[54]). […] To investigate the effect of pH on the chloride transport capabilities unilamellar vesicles were loaded with NaCl (489 mM) and suspended in NaNO3 (489 mM), and the internal and external solutions were buffered to pH 4.5, 6.5, 7.2 and 10 using various buffers (more detail can be found in the Supplementary Information). Compounds 1d and 2–8 were then tested in a single point screen at 0.1 mol% loading (Fig. 5). At pH 4.5 the perenosins exist predominantly as the active protonated species and so all compounds show moderate to high chloride transport properties, whereas, there is no chloride transport observed at pH 10 (see Supplementary Information for results).
S10. Anion Transport Studies
S10.1. General Procedure for the ISE Assay
Unilamellar vesicles were prepared using previously reported literature procedures7-9. A lipid film of POPC (1-palmitoyl-2-oleoyl-sn-glycero-3-phosphocholine) or POPC:cholesterol (7:3 molar ratio) was prepared from a chloroform solution under reduced pressure and then dried under vacuum for 4 or more hours. The lipid film was rehydrated by vortexing with an internal solution of buffered metal chloride salt (usually 489 mM MCl). The lipid suspension was then subjected to 9 freeze-thaw cycles and left to rest at room temperature for 30 minutes. After this, the suspension was extruded 25 times through a 200 nm polycarbonate membrane resulting in unilamellar vesicles of a mean diameter of 200 nm. The large unilamellar vesicles were dialysed in the corresponding external solution for a minimum of 2 hours to remove any unencapsulated metal salts. The lipid solution obtained after dialysis was diluted to a standard volume (usually 10 mL) with the external buffered solution to obtain a lipid stock of known concentration.
Internal and external solutions vary for each experiment and are detailed for each. Experiments conducted at different pHs required different buffers (citrate buffer for pH 4.5; phosphate buffer for pH 6.5 and pH 7.2; and ethanolamine buffer for pH 10) however, a constant buffer concentration (5 mM) and total ionic strength (500 mM) was maintained.
The lipid stock was diluted with the external buffer solution to a standard volume (5 mL), to afford a solution with a lipid concentration of 1 mM. The compounds were added as a DMSO solution (10 μL) at the start of the experiment and the resulting chloride efflux was monitored using a chloride selective electrode over 5 minutes. After this time, detergent (50 μL of Triton X-100 (11 w%) in H2O:DMSO (7:1 v/v)) was added to lyse the vesicles and after 7 minutes a final chloride efflux reading was taken. This value represented 100 % chloride efflux and was used to calibrate the other […]
Compared to pH 7.2, at pH 6.5 compounds 1d and 2-6 show increased transport ability with 2, 4 and 5 showing very similar, high transport capabilities and 1d, 3 and 6 not transporting to as great an […]
S10.3. Cl-/NO3- ISE Assay - Hill Analysis
The Cl-/NO3- exchange assay was performed as described above testing the compounds at varying […]
carrier concentration (mol%, with respect to lipid). The data points were then fitted to the Hill […]

## CCCCCc1cc2cc(C)cc(/N=C/c3[nH]c4ccccc4c3C)c2[nH]1 [Perenosin 8]
0.1 mol% loading
  chloride efflux at pH 4.5: 35%
  chloride transport at pH 6.5: inactive
  chloride transport at pH 7.2 (Hill analysis feasibility): too weak to perform Hill analysis; also recorded: weak transport activity

## CCCCCc1cc(/N=C/c2[nH]c(C)cc2C)c2[nH]ccc2c1 [Perenosin 1d]
  EC50 Cl^−/NO3^− at pH 7.2 (by ISE): 0.122 mol% and 0.1220 mol%

## CCCCCc1cc(/N=C/c2[nH]c3ccccc3c2C)c2[nH]ccc2c1 [Perenosin 7]
0.1 mol% loading
  chloride efflux at pH 4.5: inactive
  chloride transport at pH 6.5: inactive
  chloride transport at pH 7.2 (Hill analysis feasibility): too weak to perform Hill analysis; also recorded: weak transport activity

## CCCCCc1cc2cc(C)cc(/N=C/c3[nH]c(C)c(CCCCC)c3C)c2[nH]1 [Perenosin 6]
  EC50 Cl^−/NO3^− at pH 7.2 (by ISE): 0.0852 mol%

## CCCCCc1cc2cc(C(F)(F)F)cc(/N=C/c3[nH]c(C)cc3C)c2[nH]1 [Perenosin 3]
  chloride transport at pH 7.2 (Hill analysis feasibility): too weak to perform Hill analysis
After 300 s, loading of 10 mol%, pH 7.2
  maximum chloride efflux: 35%

## CCCCCc1c(C)[nH]c(/C=N/c2cc(C)cc3cc[nH]c23)c1C [Perenosin 5]
0.1 mol% loading
  chloride transport at pH 6.5: high
  EC50 Cl^−/NO3^− at pH 7.2 (by ISE): 0.0227 mol%

## CCCCCc1cc2cc(C)cc(/N=C/c3[nH]c(C)cc3C)c2[nH]1 [Perenosin 2]
0.1 mol% loading
  chloride efflux in POPC vesicles at pH 7.2: 100%
  chloride transport at pH 6.5: high
  EC50 Cl^−/NO3^− at pH 7.2 (by ISE): 0.0043 mol%

## CCCc1cc2cc(C)cc(/N=C/c3[nH]c(C)cc3C)c2[nH]1 [Perenosin 4]
0.1 mol% loading
  chloride transport at pH 6.5: high
  EC50 Cl^−/NO3^− at pH 7.2 (by ISE): 0.0111 mol%
